One assay concerns the target T1, hTPC2 (Homo sapiens, UniProt Q8NHX9).
T1 construct: gene TPCN2; full-length with C-terminal EGFP, plasmid pSAT-hTPC2-EGFP; transiently expressed in vacuoles of Arabidopsis thaliana tpc1-2 mutant mesophyll protoplasts; dimer
Nature of the assay: whole-vacuole patch clamp, dose-response of current inhibition. The assay is classed as cell-based. To be noted: read-out: apparent affinity constant.

The target of another assay is T2, hTPC1 (Homo sapiens, UniProt Q9ULQ1).
T2 construct: gene TPCN1; full-length with C-terminal EGFP, plasmid pSAT-hTPC1-EGFP; transiently expressed in vacuoles of Arabidopsis thaliana tpc1-2 mutant mesophyll protoplasts; dimer
Nature of the assay: whole-vacuole patch clamp, current activation. Type of assay: biochemical. The conditions noted are these: activator; 90 nM cytosolic side; diC8 form; pH 7.5 cytosolic, pH 5.5 vacuolar. In general terms: The patch-clamp technique gives a direct electrical read-out from membranes.

T1 sequence (Q8NHX9 whole entry): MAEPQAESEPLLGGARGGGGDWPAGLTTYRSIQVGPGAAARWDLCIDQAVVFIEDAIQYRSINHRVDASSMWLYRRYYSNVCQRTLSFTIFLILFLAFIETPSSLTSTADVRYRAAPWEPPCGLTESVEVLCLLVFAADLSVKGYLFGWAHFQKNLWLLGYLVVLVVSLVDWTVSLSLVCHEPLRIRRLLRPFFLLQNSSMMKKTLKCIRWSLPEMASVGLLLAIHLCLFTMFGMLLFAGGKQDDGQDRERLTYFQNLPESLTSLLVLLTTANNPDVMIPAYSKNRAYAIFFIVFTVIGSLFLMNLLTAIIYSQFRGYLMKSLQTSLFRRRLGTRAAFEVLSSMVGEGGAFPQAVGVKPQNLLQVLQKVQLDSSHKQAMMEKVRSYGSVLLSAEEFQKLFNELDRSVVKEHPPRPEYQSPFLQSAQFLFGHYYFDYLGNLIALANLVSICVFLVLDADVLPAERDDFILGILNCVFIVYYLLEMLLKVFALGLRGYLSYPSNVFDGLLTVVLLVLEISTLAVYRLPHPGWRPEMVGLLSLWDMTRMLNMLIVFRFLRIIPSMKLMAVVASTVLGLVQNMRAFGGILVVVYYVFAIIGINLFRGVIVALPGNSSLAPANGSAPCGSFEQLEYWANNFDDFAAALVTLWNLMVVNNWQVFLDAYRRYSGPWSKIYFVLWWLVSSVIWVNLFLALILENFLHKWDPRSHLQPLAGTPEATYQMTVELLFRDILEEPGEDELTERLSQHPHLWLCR

`O=C1C[C@@H](c2ccc(O)cc2)Oc2cc(O)cc(O)c21` [Nar, 5,7-dihydroxy-2-(4-hydroxyphenyl)chroman-4-one]: the IC50 at hTPC2 turned out to be 180 ± 20 µM. For the compound `CCCCCCCC(=O)OC[C@H](COP(=O)(O)O[C@@H]1[C@H](O)[C@H](OP(=O)(O)O)[C@@H](O)[C@H](OP(=O)(O)O)[C@H]1O)OC(=O)CCCCCCC` [PI(3,5)P2], at hTPC1, the “whole-vacuole patch clamp, current activation” value is on record as “very small in comparison to those elicited by the addition of the phosphoinositide”.

Source of the values: publication PMC5505983, “Naringenin Impairs Two-Pore Channel 2 Activity And Inhibits VEGF-Induced Angiogenesis” (Scientific Reports, 2017).
